For twelve molecules, IC50 and melting point results are on record in patent publication US8119675B2, “Benzimidazole derivatives” (Merck Patent GmbH, priority 2007, dated 2012).

In one data set the target is T1, SGLT1 (Homo sapiens, UniProt P13866).
T1 construct: expressed in transfected cells
T1 sequence (P13866 1-664): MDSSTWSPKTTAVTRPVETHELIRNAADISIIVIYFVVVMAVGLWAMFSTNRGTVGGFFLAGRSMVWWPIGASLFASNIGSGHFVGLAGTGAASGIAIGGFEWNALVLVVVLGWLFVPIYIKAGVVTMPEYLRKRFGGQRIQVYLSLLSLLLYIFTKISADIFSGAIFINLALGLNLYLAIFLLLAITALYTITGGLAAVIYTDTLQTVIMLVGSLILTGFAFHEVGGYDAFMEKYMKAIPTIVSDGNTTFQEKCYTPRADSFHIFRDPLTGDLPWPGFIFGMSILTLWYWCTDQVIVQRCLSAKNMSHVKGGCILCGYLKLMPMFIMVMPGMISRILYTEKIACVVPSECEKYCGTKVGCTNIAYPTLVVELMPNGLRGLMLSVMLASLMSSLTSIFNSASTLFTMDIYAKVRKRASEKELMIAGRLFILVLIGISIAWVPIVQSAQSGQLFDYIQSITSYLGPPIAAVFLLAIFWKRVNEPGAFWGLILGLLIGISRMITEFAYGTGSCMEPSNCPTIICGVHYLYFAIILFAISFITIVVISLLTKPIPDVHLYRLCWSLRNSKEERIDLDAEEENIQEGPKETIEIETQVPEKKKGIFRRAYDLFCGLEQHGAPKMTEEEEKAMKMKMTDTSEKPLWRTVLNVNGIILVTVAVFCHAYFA
Put plainly: 14C-AMG uptake in BHK cells transfected with SGLT1 (96-well cell-based assay). As to conditions: 50 μM AMG, 37° C., 90 min. From the text:
(§1) The compounds can be tested for their SGLT inhibition properties by means of BHK cells expressing SGLT1 and SGLT2. The production of the cells and the testing can be carried out as described below.
To construct the SGLT1 expression vector (KL225), the SLC5A1 gene (homologous to NM_000343) was amplified from a cDNA library using standard PCR technology and cloned over NheI/XhoI sites into the pcDNA3.1 expression vector (Invitrogen) containing neomycin as a selection marker. In this vector, transcription uses the enhancer/promoter of human cytomegalovirus.
(§2) The final vector KL225 together with an additional vector containing a dihydrofolate reductase gene as a selection marker was introduced into cells. Transfection into BHK21 cells (ATCC CCL-10), cultivated in DMEM medium (GIBCO/BRL), supplemented with 10% foetal calf serum (FCS) and 20 mM glutamine, was carried out using calcium phosphate transfections according to Graham, F. L. and van der Ebb, A. J. (1973), Virology 52: 456 with 5-20 μg of uncut plasmids for 10^7 cells. Stable transfectants were selected in medium containing 1 mg/ml of G418 (GIBCO/BRL) and 20-5000 nM methotrexate as final concentration, where only cells which expressed the neomycin gene and overexpressed the dhfr gene were able to grow. After growth for 2-3 weeks, the cells were cloned (0.5 cells/well) and the clones were investigated for SGLT expression in radioactivity uptake tests.
(§3) The uptake of ^14C-α-methyl-D-glucopyranoside (AMG) in, for example, Xenopus oocytes injected with the corresponding cRNA has been described in principle (for example Wen-Sen Lee et al. (1994), J. Biol. Chem. 269, 12032-12039; Guofeng You et al. (1995), J. Biol. Chem. 270, 29365-29371).
(§4) A 96-well cell-based assay was developed and adapted to HTS requirements:
(§5) BHK cells (transfected with SGLT1 or SGLT2) were seeded into 96-well microtitre plates (Cultureplates, Perkin Elmer). After at least 24 h, medium was removed, and the cell layer was washed with assay buffer (140 mM NaCl, 2 mM KCl, 1 mM CaCl2, 1 mM MgCl2, 10 mM HEPES, 5 mM Tris, adjusted to pH 7.4 using 1 M KOH). After addition of 40 μl of assay buffer, 50 μl of AMG (50 μM for SGLT1 and 2 mM for SGLT2) in the presence or absence of compounds, the cells were incubated in a total volume of 100 μl at 37° C. for 90 min. Supernatant was removed by suction and discarded. Cells were washed and lysed by addition of 50 μl of water. After 10 min at room temperature, 200 μl of Micrsoscint 40 (Perkin Elmer) were added. The radioactivity was counted in a Topcount microplate scintillation counter (Perkin Elmer). The non-specific uptake was determined in sodium-free assay buffer (266 mM sucrose, 2 mM KCl, 1 mM CaCl2, 1 mM MgCl2, 10 mM HEPES, 5 mM Tris, adjusted to pH 7.4 using 1 M KOH).

In the next data set the target is T2, SGLT2 (Homo sapiens, UniProt P31639).
T2 construct: expressed in transfected cells
T2 sequence (P31639 1-672): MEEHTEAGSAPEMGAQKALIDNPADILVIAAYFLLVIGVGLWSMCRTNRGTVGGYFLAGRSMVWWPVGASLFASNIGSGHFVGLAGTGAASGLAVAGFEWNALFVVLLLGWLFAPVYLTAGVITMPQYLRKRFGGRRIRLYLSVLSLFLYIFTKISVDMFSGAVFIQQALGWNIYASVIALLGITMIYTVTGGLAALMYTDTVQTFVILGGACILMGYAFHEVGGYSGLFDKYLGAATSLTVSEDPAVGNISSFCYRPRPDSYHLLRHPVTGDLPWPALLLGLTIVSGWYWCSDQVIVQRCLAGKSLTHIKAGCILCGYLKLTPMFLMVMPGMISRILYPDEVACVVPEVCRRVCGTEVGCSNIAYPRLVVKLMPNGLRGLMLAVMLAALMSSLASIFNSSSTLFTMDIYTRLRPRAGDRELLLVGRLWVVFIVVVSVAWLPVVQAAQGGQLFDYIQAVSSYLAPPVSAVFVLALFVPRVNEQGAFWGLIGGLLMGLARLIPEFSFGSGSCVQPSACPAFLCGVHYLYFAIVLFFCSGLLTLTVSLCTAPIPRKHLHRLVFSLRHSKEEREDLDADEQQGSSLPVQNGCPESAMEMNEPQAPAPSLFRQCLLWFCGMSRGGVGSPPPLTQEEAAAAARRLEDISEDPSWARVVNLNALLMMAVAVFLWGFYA
Put plainly: 14C-AMG uptake in BHK cells transfected with SGLT2 (96-well cell-based assay). As to conditions: 2 mM AMG, 37° C., 90 min.
Excerpt: as §1
To construct the SGLT2 expression vector (KL224), the SLC5A2 gene (homologous to NM_003041) was amplified from a cDNA library using standard PCR technology and cloned over NheI/XhoI sites into PCI-neo expression vector (Promega) containing neomycin as a selection marker. In this vector, transcription uses the enhancer/promoter of human cytomegalovirus and the SV40 polyadenylation signal.
as §2, with “KL224” for “KL225”
as §3, §4, §5

Broadly, the IC50 is the concentration at which inhibition is half-maximal. Read a low IC50 as greater potency. For orientation: melting point means the temperature of the solid-liquid transition.

Some results are limits rather than exact numbers.

`COc1cc(C)c(-c2nc3ccc(F)cc3n2Cc2c(C)cccc2C)c(OCC(N)=O)c1` [Compound A1, 2-{2-[1-(2,6-dimethylbenzyl)-6-fluoro-1H-benzimidazol-2-yl]-5-methoxy-3-methylphenoxy}acetamide] returned a melting point of 173 to 174 °C. The molecule further displayed an IC50 against SGLT1 of over 10 µM. On SGLT2, this molecule returned an IC50 of 0.01 to 1 µM.
As to `NC(=O)COc1ccccc1-c1nc2ccccc2n1Cc1c(F)cccc1Cl` [Compound A20, 2-{2-[1-(2-Chloro-6-fluorobenzyl)-1H-benzimidazol-2-yl]phenoxy}acetamide], the IC50 on SGLT1 is over 10 µM; against SGLT2, 1 to 10 µM.
The corresponding values for `NC(=O)COc1ccccc1-c1nc2cccc(Cl)c2n1Cc1c(Cl)cccc1Cl` [Compound A21, 2-{2-[7-Chloro-1-(2,6-dichlorobenzyl)-1H-benzimidazol-2-yl]phenoxy}acetamide] are over 10 µM and 1 to 10 µM.
In the case of `Cc1cccc(Cl)c1Cn1c(-c2ccccc2OCC(N)=O)nc2ccccc21` [Compound A22, 2-{2-[1-(2-Chloro-6-methylbenzyl)-1H-benzimidazol-2-yl]phenoxy}acetamide], the IC50 was over 10 µM against SGLT1 and 1 to 10 µM against SGLT2.
On the same counts, the results for `Cc1cccc(C)c1Cn1c(-c2ccccc2OCC(N)=O)nc2cccc(Br)c21` [Compound A23, 2-{2-[7-Bromo-1-(2,6-dimethylbenzyl)-1H-benzimidazol-2-yl]phenoxy}acetamide] are over 10 µM and over 10 µM.
On the same counts, the results for `Cc1cccc(C)c1Cn1c(-c2ccccc2OCC(N)=O)nc2cccc(Cl)c21` [Compound A24, 2-{2-[7-Chloro-1-(2,6-dimethylbenzyl)-1H-benzimidazol-2-yl]phenoxy}acetamide] are 1 to 10 µM and 0.01 to 1 µM.
`Cc1cccc(C)c1C(=O)n1c(-c2ccccc2OCC(N)=O)nc2ccccc21` [Compound A25, 2-{2-[1-(2,6-Dimethylbenzoyl)-1H-benzimidazol-2-yl]phenoxy}acetamide]: the concentration for half-maximal inhibition (IC50) against SGLT1 and against SGLT2 was over 10 µM each time.
For `Cc1cccc(C)c1Cn1c(-c2ccccc2OC2CCNC2=O)nc2ccccc21` (stereo not shown) [Compound A26, 3-{2-[1-(2,6-Dimethylbenzyl)-1H-benzimidazol-2-yl]phenoxy}pyrrolidin-2-one], the results for the IC50 against SGLT1 and against SGLT2 were over 10 µM and 1 to 10 µM, respectively.
On the same counts, the results for `Cc1cccc(C)c1Cn1c(-c2ccccc2OC(CO)C(N)=O)nc2ccccc21` (stereo not shown) [Compound A27, 2-{2-[1-(2,6-Dimethylbenzyl)-1H-benzimidazol-2-yl]phenoxy}-3-hydroxypropionamide] are over 10 µM and over 10 µM.
The corresponding values for `COc1cc(C)c(-c2nc3cc(F)c(F)cc3n2Cc2c(C)cccc2C)c(OCC(N)=O)c1` [Compound A28, 2-{2-[1-(2,6-Dimethylbenzyl)-5,6-difluoro-1H-benzimidazol-2-yl]-5-methoxy-3-methylphenoxy}acetamide] are over 10 µM and 1 to 10 µM.
On the same counts, the results for `Cc1cccc(C)c1Cn1c(-c2ccccc2OCC(N)=O)nc2ccc(F)c(F)c21` [Compound A29, 2-{2-[1-(2,6-Dimethylbenzyl)-6,7-difluoro-1H-benzimidazol-2-yl]phenoxy}acetamide] are over 10 µM and 1 to 10 µM.
With `COc1cc(C)c(-c2nc3ccc(F)c(F)c3n2Cc2c(C)cccc2C)c(OCC(N)=O)c1` [Compound A30, 2-{2-[1-(2,6-Dimethylbenzyl)-6,7-difluoro-1H-benzimidazol-2-yl]-5-methoxy-3-methylphenoxy}acetamide], the IC50 against SGLT1 lay within 1 to 10 µM; at SGLT2 it was 0.01 to 1 µM.
